Measured values taken from a melting point compilation (Tetko et al.; mined from patent text by program, amines drawn as free bases though some values may be those of a salt).

Point of comparison: COc1ccc(C(=O)c2ccccc2)cc1Cl, melting point 87 °C. Against it:
- CCOC(N)=C(C#N)C(N)=S — higher, 170 to 171 °C
- c1cc(OCC2CO2)c2cnsc2c1 (stereo not given) — higher, 90 to 91 °C
- O=C(O)C(c1ccccc1)N1C(=O)c2cccc([N+](=O)[O-])c2C1=O (stereo not given) — higher, 213 to 229 °C
- COc1ccc([N+](=O)[O-])c(C=C2C(=O)NC(=O)N2C)c1 — higher, 257 to 260 °C
- CN(C)c1nc2c(c(N3CCN(Cc4ccccc4)CC3)n1)SCCC2 — higher, 106 to 108 °C
- O=[N+]([O-])c1ccc(OCCCO)cc1CS(=O)(=O)c1cccc2ccccc12 — higher, 134 to 135 °C
- COC(=O)c1ccc(OCCNC(=O)C2Cc3ccccc3N2S(=O)(=O)c2ccc(-c3cccc(C(F)(F)F)c3)cc2)cc1F (stereo not given) — lower, 63 to 70 °C
- COc1cc(Nc2c(C#N)cnc3cc(-c4cc5ccccc5o4)ccc23)c(Cl)cc1Cl — higher, 276 to 277 °C
- Cn1c(C(C)(C)C)cn(N=Cc2cccnc2)c1=O — higher, 116 to 121 °C
- O=C1C(=NOCCO)Oc2ccccc21 — higher, 110 to 111 °C
- Cc1oc(-c2ccccc2)nc1COc1cc(COc2ncccc2CO)on1 — higher, 136 to 137 °C
- COc1cc2c(cc1C(F)(F)F)N(C(=O)Nc1ccc3c(ccn3Cc3cccnc3)c1)CC2 — higher, 243 to 246 °C
- Nc1cccc(C(=O)c2cccc3ccccc23)c1O — higher, 211 °C
- Cc1ccc2c(c1)-c1ncnn1CC(=O)N2 — higher, 206 to 208 °C
- CC(C)(C)OC(=O)[C@@H]1CCCN1CC(=O)[C@H](Cc1ccccc1)NC(=O)OCc1ccccc1 — higher, 98 to 99 °C
- c1ccc2nc(COc3cccc4[nH]ccc34)ccc2c1 — higher, 143 to 144 °C
- CC(C)C(c1ccc2[nH]c(=O)cnc2c1)n1ccnc1 (stereo not given) — higher, 194 °C
- COc1ccc(Br)cc1-c1nc(N)nc(N)n1 — higher, 294 to 297 °C
- CC(=O)c1ccccc1OC1SCC(O)C(O)C1O (stereo not given) — higher, 102 to 105 °C
- COc1cc(C)c(C(=O)c2c(OC)cncc2C(F)(F)F)c(OC)c1OC — higher, 103 to 106 °C
- O=C(O)CCCC1C(=O)Nc2ccccc21 (stereo not given) — lower, 79 to 80 °C
- COc1ccc(N2C(=O)NC(=O)C23CCCCC3)cc1 — higher, 203 to 205 °C
- COC(=O)Nc1c(C#N)cnn1-c1c(Cl)cc(SC(F)(F)F)cc1Cl — higher, 145 °C
- CN1CC(N(C(=O)c2ccc(Cl)cc2)c2ccccc2)CN1C — higher, 104 to 108 °C
- Cc1c(NC(=O)c2c(C(=O)N3CCC3)cnn2C)ccn2nc(-c3ccccc3)nc12 — higher, 243 to 245 °C
- CC(=S)NC(C(=O)NCc1ccccc1)c1ccco1 (stereo not given) — lower, 78 to 80 °C
- COc1cc(S(C)(=O)=O)c(F)cc1OCCCl — not separable, 85 to 87 °C
- Cc1ccnc(N2CCN(C3Sc4ccccc4NC3=O)CC2)c1 (stereo not given) — higher, 245 °C
- CC(C)(C)OC(=O)NCC1CN[C@@H]2CCO[C@H]12 (relative stereo) — lower, 59 to 67 °C
- CN1CCCCC1CCc1ccccc1NC(=O)c1ccoc1 (stereo not given) — higher, 114 to 116 °C
- Nc1ccn(C2CCCCC2)c(=O)n1 — higher, 213 to 231 °C
- CC(C)(C)c1ccc(OCC(O)CN2CCC3(CC2)CSC2=C(O3)c3cc(Cl)ccc3C(=O)C2=O)cc1 (stereo not given) — higher, 94 to 97 °C
- COC(=O)c1cc(-c2ccccc2)c(=O)n2c1-c1cc(Cl)ccc1CC2 — higher, 139 to 141 °C
- N#CCCNC(=S)C1CC(CF)(CF)Oc2ccc([N+](=O)[O-])cc21 (stereo not given) — higher, 183 to 184 °C
- O=C(O)c1ccc(OCCCCn2c(-c3ccccc3)nc(-c3ccccc3)c2-c2ccccc2)cc1 — higher, 202 to 203 °C
- CC(C)(C)c1ccc(C(O)(c2ccccc2)C2CCN(CCCC(O)c3ccccc3)CC2)cc1 (stereo not given) — higher, 161 to 163 °C
- CC(C)(C)C(=O)OCn1nc2ccc(NCCCN3CCC(OC(c4ccccc4)c4ccccc4)CC3)nn2c1=O — higher, 168 to 171 °C
- CC(=O)C(C)C(=O)N(c1ccc(Cl)cc1)C(C)C (stereo not given) — lower, 77 to 79 °C
- CC1=NS(=O)(=O)N(C)C(Oc2ccc([N+](=O)[O-])cc2)=N1 — higher, 194 to 197 °C
- CC(C)CCN1C(=O)C(NC(=O)n2ccnc2)C(=O)N(c2ccccc2)c2ccccc21 (stereo not given) — lower, 62 to 65 °C
- NS(=O)(=O)c1cc(C(=O)O)cc(C(F)(F)F)c1 — higher, 244 to 246 °C
- CNS(=O)(=O)c1cc(C(=O)CCC(=O)OC)ccc1Cl — higher, 112 to 114 °C
- CCOc1cc(N)c([N+](=O)[O-])cc1C(=O)O — higher, 230 °C
- COc1ccc(C(=C2CCCCC2)c2ccc(OC)c(OC)c2)cc1OC — higher, 107 °C
- CON(C(=N)N)c1nc(C)cc(C)n1 — higher, 134 to 136 °C
- O=[N+]([O-])C1=CN(Cc2ccccc2)C2C([N+](=O)[O-])=CN(Cc3ccccc3)C1N2Cc1ccccc1 — higher, 184 to 185 °C
- CSc1ccc(-c2nc(SC)c(C#N)c(=O)n2-c2ccc(C(C)C)cc2)cc1 — higher, 180 to 181 °C
- O=C(c1nc2ccc(O)cc2[nH]1)N1CCC(=Cc2ccc(F)cc2)CC1 — higher, 105 to 106 °C
- CC(C)(C)NS(=O)(=O)c1c(C(=O)O)sc2ccccc12 — higher, 180 °C
- Cc1ccc2c(c1)C(=O)c1ccc(C(N)=O)cc1S2(=O)=O — higher, 305 °C
- CCOC(=O)c1cn(C2CC2)c2cc(-n3cccc3)c(F)cc2c1=O — higher, 216 to 219 °C
- CCCCCCCNC(=O)Nc1ccccc1N(C)C(=O)c1cc(C(C)(C)C)c(O)c(C(C)(C)C)c1 — higher, 193 to 196 °C
- Ic1ncnc2c1ncn2Cc1ccccc1 — higher, 152 to 153 °C
- COc1ccc2[nH]c(=O)cc(CCCl)c2c1 — higher, 231 to 232 °C
- O=c1cc(C(F)(F)F)ccn1-c1c(Cl)cc(CO)cc1Cl — higher, 151 to 152 °C
- O=C1NC(=O)C(Cc2ccc(OCCON=Cc3ccncc3)cc2)S1 (stereo not given) — higher, 221 °C
- Oc1ccc(-c2nnnc(-c3cccc4ccccc34)c2-c2ccc(O)cc2O)c(O)c1 — higher, > 280 °C
- COC(=O)C(C)(C)Cc1c(SC(C)(C)C)c2cc(O)ccc2n1Cc1ccc(Cl)cc1 — higher, 170 to 171 °C
- COC(=O)c1ccc(Br)c(S(C)(=O)=O)c1 — higher, 148 to 149 °C
- O=C1C(c2cccc(Br)c2)n2cncc2CN1Cc1ccccn1 (stereo not given) — lower, 52 to 56 °C
- CCCNC(=O)c1ccc2c(c1)N(C(C)CN1CCCC1)c1ccccc1S2 (racemic) — lower, 75 to 80 °C
- CC(C)(CO)NS(=O)(=O)c1cc(NC(=O)c2cnn3c(C(F)(F)F)cc(-c4ccc(C(F)(F)F)cc4)nc23)c(Cl)s1 — higher, 223 °C
- COc1cc(OC)nc(C(OC)(C(=O)NS(C)(=O)=O)c2ccccc2)n1 (stereo not given) — higher, 155 to 157 °C
- CSCCOc1ccc(-c2ccc3c(c2)C=C(C(=O)Nc2ccc(CN(C)C4CCOCC4)cc2)CCS3(=O)=O)cc1 — higher, 222 to 224 °C
- COc1ccccc1N(CCN1CCC(C(=O)c2ccc(F)cc2)CC1)S(=O)(=O)C1=CCC(=NO)C=C1 — higher, 162 to 168 °C
- CC(=O)NC[C@H]1CN(c2cc(F)c(N3CCC(n4nnc(N5CCN(C)CC5)n4)CC3)c(F)c2)C(=O)O1 — higher, 184 to 188 °C
- CC(C)(C)OC(=O)Nc1cc(N2CCC3(CC2)OCCO3)c(I)cc1[N+](=O)[O-] — higher, 132 to 134 °C
- O=Cc1cc(F)c(NC(=O)C(F)(F)F)c(F)c1 — higher, 122 to 125 °C
- CCCCCCCCCCCCCC(=O)Nc1cc(NC(=O)CCCCCCCCCCCCC)cc(C(=O)N(CC(=O)O)CC(=O)O)c1 — higher, 109 to 111 °C
